As a reminder, the IC50 is the midpoint of a concentration-inhibition curve.

The source of these data is patent US7531554B2, “4-oxoquinoline compound and use thereof as HIV integrase inhibitor” (Japan Tobacco Inc., priority 2004, dated 2009).

The experiment addresses T1, HIV integrase (Human immunodeficiency virus type 1 group M subtype B, UniProt P12497, F1332H).
T1 construct: HIV integrase full length gene (J. Virol., 67, 425-437 (1993)) in which phenylalanine at codon 185 was substituted by histidine; made in house; host or cells: Escherichia coli BL21(DE3)
Nature of the experiment: Determination of enzyme (HIV integrase) inhibitory activity. Format: biochemical. To be noted: recombinant integrase protein (F185H), donor DNA/target DNA, absorbance at 450 nm. The procedure: HIV integrase full length gene (J. Virol., 67, 425-437 (1993)) in which phenylalanine at codon 185 was substituted by histidine, was inserted between the restriction enzyme NdeI and XhoI sites of plasmid pET21a(+) (Novagen), whereby an integrase expression vector pET21a-IN-F185H was constructed.
Escherichia coli recombinant BL21(DE3) transformed with plasmid pET21a-IN-F185H obtained in (i) was shake cultured at 30° C. in a liquid medium containing ampicillin. When the culture reached the logarithmic growth phase, isopropyl-β-D-thiogalactopyranoside was added to promote expression of integrase gene. The culture was continued for 3 hr to promote accumulation of the integrase protein. The recombinant E. coli was collected in pellets by centrifugal separation and preserved at −80° C.
The E. coli was suspended in Lysis buffer (20 mM HEPES (pH 7.5), 5 mM DTT, 10 mM CHAPS, 10% glycerol) containing 1M sodium chloride and subjected to repeat pressurization and depressurization for rupture, and centrifugal separation at 4° C., 40,000×g, 60 min to recover a water-soluble fraction (supernatant). This was diluted 10-fold with Lysis buffer free of sodium chloride, mixed with SP-Sepharose (Pharmacia Corporation) and stirred at 4° C. for 60 min to allow adsorption of integrase protein to the resin. The resin was washed with Lysis buffer containing 100 mM sodium chloride and the integrase protein was eluted with Lysis buffer containing 1M sodium chloride.
The eluted integrase protein solution was subjected to a Superdex 75 (Pharmacia Corporation) column for gel filtration. The protein was eluted with Lysis buffer containing 1M sodium chloride.
The obtained fractions of the integrase protein were collected and preserved at −80° C.
The following DNA synthesized by Greiner was dissolved in TE buffer (10 mM Tris-hydrochloric acid (pH 8.0), 1 mM EDTA) and mixed with donor DNA, target DNA, and each complementary strand (+ and − strands) to 1 μM. The mixture was heated at 95° C. for 5 min, 80° C. for 10 min, 70° C. for 10 min, 60° C. for 10 min, 50° C. for 10 min and 40° C. for 10 min and kept at 25° C. to give a double stranded DNA, which was used for the test. Donor DNA ([…] attached to the 5′ terminal) Donor + strand: 5′-Biotin-ACCCTTTTAGTCAGTGTGGAAAATCTCTAGCA-3′ (SEQ ID NO:1) Donor − strand: 5′-ACTGCTAGAGATTTTCCACACTGACTAAAAG-3′ (SEQ ID NO:2) Target DNA (+, − strands both having digoxigenin added at 3′ terminal) Target + strand: 5′-TGACCAAGGGCTAATTCACT-Dig-3′ (SEQ ID NO:3) Target − strand: 5′-AGTGAATTAGCCCTTGGTCA-Dig-3′ (SEQ ID NO:4)
The donor DNA was diluted with TE buffer to 10 nM, of which 50 μl was added to each well of streptavidin-coated microtiter plate (Roche) and allowed to adsorb at 37° C. for 60 min. The plate was washed with phosphate buffer (Dulbecco's PBS, Sanko Junyaku Co., Ltd.) containing 0.1% Tween 20 and phosphate buffer. Then, an enzyme reaction mixture (70 μl), a test substance (10 μl) diluted with the reaction mixture and 100 μg/ml integrase protein (10 μl) were added to each well and reacted at 37° C. for 60 min.
Then, 50 nM target DNA (10 μl) was added, reacted at 37° C. for 10 min and washed with phosphate buffer containing 0.1% Tween 20 to stop the reaction.
Then, 100 mU/ml peroxidase labeled anti-digoxigenin antibody solution (Roche, 100 μl) was added, and the mixture was reacted at 37° C. for 60 min, followed by washing with phosphate buffer containing 0.1% Tween 20.
A peroxidase color solution (Bio Rad, 100 μl) was added and allowed to react at room temperature for 4 min. The color reaction was stopped by adding 1N sulfuric acid (100 μl). The absorbance at 450 nm was measured.
The HIV integrase inhibitory activity (IC50) of the compound of the present invention was calculated from the inhibition rate according to the following formula. […]

Where a name gives a salt, the structure may show the parent alone.

As to `CO[C@H](C)[C@@H](CO)n1cc(C(=O)O)c(=O)c2cc(Cc3cccc(Cl)c3F)ccc21` [Example 2-15, 6-(3-chloro-2-fluorobenzyl)-1-((1R,2R)-1-(hydroxymethyl)-2-methoxypropyl)-4-oxo-1,4-dihydroquinoline-3-carboxylic acid], the IC50 turned out to be 5.2 nM. Regarding `CC(C)[C@@H](CO)n1cc(C(=O)O)c(=O)c2cc(Cc3cccc(Cl)c3F)c(OCS(N)(=O)=O)cc21` [Example 4-52, 7-((aminosulfonyl)methoxy)-6-(3-chloro-2-fluorobenzyl)-1-((1S)-1-(hydroxymethyl)-2-methylpropyl)-4-oxo-1,4-dihydroquinoline-3-carboxylic acid], the IC50 is 6.6 nM. In the case of `COc1cc2c(cc1Cc1cccc(Cl)c1F)c(=O)c(C(=O)O)cn2[C@H](CO)CS(C)(=O)=O` [Example 2-4, 6-(3-chloro-2-fluorobenzyl)-1-((1R)-1-(hydroxymethyl)-2-mesylethyl)-7-methoxy-4-oxo-1,4-dihydroquinoline-3-carboxylic acid], the IC50 came out at 10 nM.

Turning to `COc1cc2c(cc1Cc1c(F)ccc(Cl)c1F)c(=O)c(C(=O)O)cn2[C@H](CO)C(C)C` [Example 1-2, 6-(3-chloro-2,6-difluorobenzyl)-1-((1S)-1-(hydroxymethyl)-2-methylpropyl)-7-methoxy-4-oxo-1,4-dihydroquinoline-3-carboxylic acid], the IC50 was found to be 3.8 nM.

For the compound `CC(C)[C@@H](CO)n1cc(C(=O)O)c(=O)c2cc(Cc3cccc(Cl)c3F)c(N3CC[C@@H](O)C3)cc21` [Example 4-23, 6-(3-chloro-2-fluorobenzyl)-1-((1S)-1-(hydroxymethyl)-2-methylpropyl)-7-((3R)-3-hydroxypyrrolidin-1-yl)-4-oxo-1,4-dihydroquinoline-3-carboxylic acid], the IC50 worked out at 27 nM. In the case of `CC(C)[C@@H](CO)n1cc(C(=O)O)c(=O)c2cc(Cc3cccc(Cl)c3F)cc(OCCCCO)c21` [Example 3-3, 6-(3-chloro-2-fluorobenzyl)-8-(4-hydroxybutoxy)-1-((1S)-1-(hydroxymethyl)-2-methylpropyl)-4-oxo-1,4-dihydroquinoline-3-carboxylic acid], the IC50 was 6.3 nM. In the case of `CC1CN(c2cc3c(cc2Cc2cccc(Cl)c2F)c(=O)c(C(=O)O)cn3[C@H](CO)C(C)C)CC(C)N1` (stereo partly drawn) [Example 4-22, 6-(3-chloro-2-fluorobenzyl)-7-(3,5-dimethylpiperazin-1-yl)-1-((1S)-1-(hydroxymethyl)-2-methylpropyl)-4-oxo-1,4-dihydroquinoline-3-carboxylic acid] it was 7.1 nM. For the compound `COCCCCOc1cc(Cc2cccc(Cl)c2F)cc2c(=O)c(C(=O)O)cn([C@H](CO)C(C)C)c12` [Example 3-8, 6-(3-chloro-2-fluorobenzyl)-1-((1S)-1-(hydroxymethyl)-2-methylpropyl)-8-(4-methoxybutoxy)-4-oxo-1,4-dihydroquinoline-3-carboxylic acid], the concentration for half-maximal inhibition (IC50) was found to be 4 nM. On to `CC(C)[C@@H](CO)n1cc(C(=O)O)c(=O)c2cc(Cc3cccc(Cl)c3F)c(N3CCNC(=O)C3)cc21` [Example 4-35, 6-(3-chloro-2-fluorobenzyl)-1-((1S)-1-(hydroxymethyl)-2-methylpropyl)-4-oxo-7-(3-oxopiperazin-1-yl)-1,4-dihydroquinoline-3-carboxylic acid], for which the concentration for half-maximal inhibition (IC50) stood at 6 nM. In the case of `CC(C)[C@@H](CO)n1cc(C(=O)O)c(=O)c2cc(Cc3cccc(Cl)c3F)c(OCCN3CCNCC3)cc21` [Example 4-33, 6-(3-chloro-2-fluorobenzyl)-1-((1S)-1-(hydroxymethyl)-2-methylpropyl)-4-oxo-7-(2-(piperazin-1-yl)ethoxy)-1,4-dihydroquinoline-3-carboxylic acid dihydrochloride] it was 5.7 nM; in that of `CC(=O)NCCOc1cc2c(cc1Cc1cccc(Cl)c1F)c(=O)c(C(=O)O)cn2[C@H](CO)C(C)C` [Example 4-41, 7-(2-(acetylamino)ethoxy)-6-(3-chloro-2-fluorobenzyl)-1-((1S)-1-(hydroxymethyl)-2-methylpropyl)-4-oxo-1,4-dihydroquinoline-3-carboxylic acid], 4.5 nM. `CC(C)[C@@H](CO)n1cc(C(=O)O)c(=O)c2cc(Cc3cccc(Cl)c3F)c(OCc3ccc(S(N)(=O)=O)cc3)cc21` [Example 4-63, 7-(4-(aminosulfonyl)benzyloxy)-6-(3-chloro-2-fluorobenzyl)-1-((1S)-1-(hydroxymethyl)-2-methylpropyl)-4-oxo-1,4-dihydroquinoline-3-carboxylic acid]: the half-maximal inhibitory concentration (IC50) was 3.6 nM. Regarding `CC(C)[C@@H](CO)n1cc(C(=O)O)c(=O)c2cc(Cc3cccc(Cl)c3F)c(N3CCSCC3)cc21` [Example 4-32, 6-(3-chloro-2-fluorobenzyl)-1-((1S)-1-(hydroxymethyl)-2-methylpropyl)-4-oxo-7-(thiomorpholin-4-yl)-1,4-dihydroquinoline-3-carboxylic acid], the IC50 came to 7.1 nM. In the case of `CC(C)[C@@H](CO)n1cc(C(=O)O)c(=O)c2cc(Cc3cccc(Cl)c3F)c(O[C@H]3CCOC3)cc21` [Example 4-47, 6-(3-chloro-2-fluorobenzyl)-1-((1S)-1-(hydroxymethyl)-2-methylpropyl)-4-oxo-7-((3S)-tetrahydrofuran-3-yloxy)-1,4-dihydroquinoline-3-carboxylic acid], the IC50 came to 6.6 nM. In the case of `CCc1cc2c(cc1Cc1cccc(Cl)c1F)c(=O)c(C(=O)O)cn2[C@H](CO)C(C)C` [Example 4-4, 6-(3-chloro-2-fluorobenzyl)-7-ethyl-1-((1S)-1-(hydroxymethyl)-2-methylpropyl)-4-oxo-1,4-dihydroquinoline-3-carboxylic acid] it was 4.7 nM; in that of `CC(C)[C@@H](CO)n1cc(C(=O)O)c(=O)c2cc(Cc3cccc(Cl)c3F)c(NC3CCNCC3)cc21` [Example 4-42, 6-(3-chloro-2-fluorobenzyl)-1-((1S)-1-(hydroxymethyl)-2-methylpropyl)-4-oxo-7-(piperidin-4-ylamino)-1,4-dihydroquinoline-3-carboxylic acid], 7.9 nM; in that of `CC(C)[C@@H](CO)n1cc(C(=O)O)c(=O)c2cc(Cc3cccc(Cl)c3F)c(OCCCN)cc21` [Example 4-19, 7-(3-aminopropoxy)-6-(3-chloro-2-fluorobenzyl)-1-((1S)-1-(hydroxymethyl)-2-methylpropyl)-4-oxo-1,4-dihydroquinoline-3-carboxylic acid hydrochloride], 4.6 nM. The same measure for `CC(C)[C@H]1COc2cc(Cc3cccc(Cl)c3F)cc3c(=O)c(C(=O)O)cn1c23` [Example 5-1, (3S)-8-(3-chloro-2-fluorobenzyl)-3-isopropyl-6-oxo-2,3-dihydro-6H-1-oxa-3a-aza-phenalene-5-carboxylic acid]: 160 nM; for `CC(C)[C@@H](CO)n1cc(C(=O)O)c(=O)c2cc(Cc3cccc(Cl)c3F)c(OCCNS(C)(=O)=O)cc21` [Example 4-49, 6-(3-chloro-2-fluorobenzyl)-1-((1S)-1-(hydroxymethyl)-2-methylpropyl)-7-(2-(mesylamino)ethoxy)-4-oxo-1,4-dihydroquinoline-3-carboxylic acid]: 5.1 nM.
